Test results from the NIST ThermoML archive (doi:10.1021/je100967k).

Assays:
[1] = xn = mol fraction of the nth substance listed; details: 101 kPa, Liquid; for speed of sound: Pulse-echo method
[2] = refractive index (Na D-line) (dimensionless); xn = mol fraction of the nth substance listed; details: 101 kPa, Liquid, Standard Abbe refractometry

CN1CCCC1=O [N-methylpyrrolidone] + O
Details | mass density, [1] [kg/m3] | refractive index, [2] | speed of sound, [1] [m/s] | viscosity, [1] [mPa·s]
293.15 K, x1 = 0.1 | 1030.11 | 1.3907 | 1713.9 | 3.332
293.15 K, x1 = 0.2 | 1047.15 | 1.4221 | 1766.5 | 5.903
293.15 K, x1 = 0.3001 | 1052.4 | 1.4402 | 1751.6 | 6.774
293.15 K, x1 = 0.3994 | 1051.69 | 1.4507 | 1718.4 | 5.724
293.15 K, x1 = 0.4997 | 1048.9 | 1.4573 | 1683.7 | 4.469
293.15 K, x1 = 0.6001 | 1045.08 | 1.4618 | 1651.6 | 3.566
293.15 K, x1 = 0.6997 | 1041.48 | 1.4648 | 1623.8 | 2.865
293.15 K, x1 = 0.7982 | 1038.44 | 1.4673 | 1601.2 | 2.394
293.15 K, x1 = 0.899 | 1035.42 | 1.469 | 1581 | 2.041
293.15 K, x1 = 1 | 1032.87 | 1.4706 | 1565.3 | 1.858
303.15 K, x1 = 0.1 | 1023.58 | 1.3882 | 1694.6 | 2.372
303.15 K, x1 = 0.2 | 1038.47 | 1.4187 | 1732 | 3.958
303.15 K, x1 = 0.3001 | 1043.03 | 1.4363 | 1713 | 4.365
303.15 K, x1 = 0.3994 | 1042.22 | 1.4467 | 1679.1 | 3.959
303.15 K, x1 = 0.4997 | 1039.51 | 1.4533 | 1644.5 | 3.318
303.15 K, x1 = 0.6001 | 1035.8 | 1.4576 | 1612.7 | 2.71
303.15 K, x1 = 0.6997 | 1032.32 | 1.4608 | 1585.3 | 2.279
303.15 K, x1 = 0.7982 | 1029.36 | 1.4628 | 1562.6 | 1.969
303.15 K, x1 = 0.899 | 1026.41 | 1.4649 | 1542.6 | 1.705
303.15 K, x1 = 1 | 1023.95 | 1.4664 | 1526.5 | 1.553
313.15 K, x1 = 0.1 | 1016.67 | 1.3863 | 1674 | 1.75
313.15 K, x1 = 0.2 | 1029.62 | 1.4165 | 1697 | 2.749
313.15 K, x1 = 0.3001 | 1033.55 | 1.4331 | 1674.3 | 3.01
313.15 K, x1 = 0.3994 | 1032.64 | 1.4425 | 1639.3 | 2.89
313.15 K, x1 = 0.4997 | 1030.02 | 1.4492 | 1604.6 | 2.51
313.15 K, x1 = 0.6001 | 1026.44 | 1.4534 | 1573.2 | 2.153
313.15 K, x1 = 0.6997 | 1023.08 | 1.4565 | 1546.8 | 1.834
313.15 K, x1 = 0.7982 | 1020.23 | 1.4584 | 1523.9 | 1.641
313.15 K, x1 = 0.899 | 1017.37 | 1.4604 | 1504.1 | 1.46
313.15 K, x1 = 1 | 1015.03 | 1.4621 | 1487.8 | 1.324
323.15 K, x1 = 0.1 | 1009.4 | 1.384 | 1651.4 | 1.348
323.15 K, x1 = 0.2 | 1020.59 | 1.4114 | 1661.6 | 2.065
323.15 K, x1 = 0.3001 | 1023.92 | 1.4283 | 1634.9 | 2.215
323.15 K, x1 = 0.3994 | 1022.94 | 1.4387 | 1599.4 | 2.161
323.15 K, x1 = 0.4997 | 1020.43 | 1.445 | 1565.5 | 1.959
323.15 K, x1 = 0.6001 | 1016.99 | 1.4495 | 1534.1 | 1.706
323.15 K, x1 = 0.6997 | 1013.78 | 1.4524 | 1507.6 | 1.485
323.15 K, x1 = 0.7982 | 1011.06 | 1.4546 | 1485.4 | 1.361
323.15 K, x1 = 0.899 | 1008.3 | 1.4564 | 1466 | 1.242
323.15 K, x1 = 1 | 1006.1 | 1.4576 | 1450.2 | 1.146
